Laboratory results published in ChEMBL document CHEMBL5120964, “Novel Antagonist of the Type 2 Lysophosphatidic Acid Receptor (LPA2), UCM-14216, Ameliorates Spinal Cord Injury in Mice” (J Med Chem, 2022).
Activity calls are given as the source filed them. The rule behind the calls is not given here.

Legend:
[1] = test system: Mus musculus; experiment: Protection of spinal cord injury-induced locomotor defect in C57B1/6J mouse model assessed as increase in motor skills at 25 mg/kg, ip treated 35 days after post injury for 10 consecutive days; type: functional, organism-based; settings: time 35.0 day
[2] = Plasma concentration in C57B1/6J mouse at 25 mg/kg, ip measured after 0.5 hrs by HPLC-MS analysis
[3] = test system: Mus musculus; experiment: Protection of spinal cord injury-induced locomotor defect in C57B1/6J mouse model assessed as frequent stepping at 25 mg/kg, ip treated 35 days after post injury for 10 consecutive days; type: functional, organism-based; settings: time 35.0 day
[4] = test system: Mus musculus; experiment: Protection of spinal cord injury-induced locomotor defect in C57B1/6J mouse model assessed as increase in locomotor activity at 25 mg/kg, ip treated for 10 consecutive days; type: functional, organism-based
[5] = Metabolic stability in human liver microsomes assessed as half life by HPLC-MS analysis; type: ADME, Microsome
[6] = molecular target: T1, Lysophosphatidic acid receptor 2 (Homo sapiens, UniProt Q9HBW0); experiment: Antagonist activity at LPA2 receptor (unknown origin) expressed in cells assessed as blockade of LPA-induced calcium mobilization measured after 120 secs by Fluo-4 NW dye based assay; type: functional, cell-based
T1 sequence (Q9HBW0 whole entry): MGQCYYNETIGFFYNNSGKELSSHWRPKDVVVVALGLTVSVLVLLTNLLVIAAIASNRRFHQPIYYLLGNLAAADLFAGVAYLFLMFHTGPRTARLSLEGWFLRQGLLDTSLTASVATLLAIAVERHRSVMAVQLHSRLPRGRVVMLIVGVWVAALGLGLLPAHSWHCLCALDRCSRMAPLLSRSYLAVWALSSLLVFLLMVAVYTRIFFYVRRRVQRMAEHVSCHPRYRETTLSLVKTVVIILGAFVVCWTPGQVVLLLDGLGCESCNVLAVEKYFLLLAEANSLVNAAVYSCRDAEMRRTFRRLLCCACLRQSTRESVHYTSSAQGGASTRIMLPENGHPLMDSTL

[7] = molecular target: T2, Lysophosphatidic acid receptor 3 (Homo sapiens) (UniProt Q9UBY5); experiment: Antagonist activity at LPA3 receptor (unknown origin) expressed in cells assessed as maximal blockade of LPA-induced calcium mobilization at 10 uM measured after 120 secs by Fluo-4 NW dye based assay relative to control; type: functional, cell-based; settings: filed as antagonist, time 120.0 sec
T2 sequence (whole entry): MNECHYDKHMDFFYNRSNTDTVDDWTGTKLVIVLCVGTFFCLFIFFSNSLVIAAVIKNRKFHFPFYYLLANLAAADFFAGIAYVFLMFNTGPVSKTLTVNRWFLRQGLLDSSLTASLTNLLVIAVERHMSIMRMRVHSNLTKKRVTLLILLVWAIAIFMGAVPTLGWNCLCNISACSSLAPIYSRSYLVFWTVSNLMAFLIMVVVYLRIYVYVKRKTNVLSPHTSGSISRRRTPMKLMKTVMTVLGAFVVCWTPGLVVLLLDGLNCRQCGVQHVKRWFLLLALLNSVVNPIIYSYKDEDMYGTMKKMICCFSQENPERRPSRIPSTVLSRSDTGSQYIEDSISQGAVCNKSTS

[8] = molecular target: T1, Lysophosphatidic acid receptor 2; experiment: Antagonist activity at LPA2 receptor (unknown origin) expressed in cells assessed as maximal blockade of LPA-induced calcium mobilization at 10 uM measured after 120 secs by Fluo-4 NW dye based assay relative to control; type: functional, cell-based; settings: filed as antagonist, time 120.0 sec

For Cc1[nH]nc(-c2ccc(OCc3nnn[nH]3)cc2O)c1Oc1ccc(Cl)cc1Cl, the Activity [1] was “Active”, the concentration at 0.5 h [2] was 103000 ng/g and the Activity [3] was “Active”. For the same compound, the Activity [4] was “Active”.
Work on Cc1[nH]nc(-c2ccc(OCC(=O)O)cc2O)c1Oc1ccc(Cl)cc1Cl yielded a t1/2 [5] of 61 min.
For Cc1[nH]nc(-c2ccc(OCc3nnn[nH]3)cc2O)c1Oc1ccc(F)cc1F, the IC50 [6] was 31 µM.
With Cc1noc(-c2ccc(OCC(=O)O)cc2O)c1Oc1ccc(Cl)cc1Cl the Emax [7] was 71% and the Emax [8] was 58%.
